Data: US12336991B2, “Factor XIIA inhibitors” (UNIVERSITY OF LEEDS, priority 2018, dated 2025)

Legend:
Format in all cases: biochemical
FXa = FXa (Homo sapiens, UniProt P00742); experiment: Determination of selectivity: FXa inhibition, chromogenic substrate S2765 assay; details: fold selectivity for FXIIa over FXa
In short: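 Human FXa (5 nM) preincubated with compound (top 500 μM, 5% DMSO) 10 min at 37 °C in 50 mM Tris, 137 mM NaCl pH 7.4, then S2765 ([…]) added; A405 kinetics over 3 h at 37 °C. IC50 from initial rates, converted to Ki via Cheng-Prusoff.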

FXIIa = biological target: T1, FXIIa (Homo sapiens, UniProt P00748); experiment: Determination of Factor XIIa inhibition, chromogenic substrate S-2302 assay; details: human FXIIa alpha
T1 sequence (P00748 373-615 limits assumed): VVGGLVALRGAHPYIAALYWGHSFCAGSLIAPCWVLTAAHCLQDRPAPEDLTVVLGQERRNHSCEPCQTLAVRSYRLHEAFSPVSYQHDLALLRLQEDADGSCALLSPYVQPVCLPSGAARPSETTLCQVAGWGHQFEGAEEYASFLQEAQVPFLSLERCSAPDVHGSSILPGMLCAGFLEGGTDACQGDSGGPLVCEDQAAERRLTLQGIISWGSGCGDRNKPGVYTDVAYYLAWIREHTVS
T1 sequence (P00748 20-372 partner limits assumed): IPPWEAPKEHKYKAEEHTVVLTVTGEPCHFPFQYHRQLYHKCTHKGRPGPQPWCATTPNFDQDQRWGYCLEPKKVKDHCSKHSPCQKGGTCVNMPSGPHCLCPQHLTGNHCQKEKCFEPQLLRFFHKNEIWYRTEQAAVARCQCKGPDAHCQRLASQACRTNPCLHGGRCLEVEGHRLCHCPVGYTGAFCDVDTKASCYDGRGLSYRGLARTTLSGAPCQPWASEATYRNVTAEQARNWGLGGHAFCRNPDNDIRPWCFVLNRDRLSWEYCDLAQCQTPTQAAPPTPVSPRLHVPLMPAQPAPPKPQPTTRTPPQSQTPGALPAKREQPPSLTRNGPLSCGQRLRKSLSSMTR
In short: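 FXIIa (10 nM) preincubated with compound 10 min at 37° C. in 50 mM Tris, 137 mM NaCl pH 7.4, 5% DMSO, top concentration 500 μM, then S-2302 added ([…]). Absorbance at 405 nm read kinetically for 3 h; IC50 from initial rates, converted to Ki by Cheng-Prusoff.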

thrombin = biological target: T2, thrombin (Homo sapiens, UniProt P00734); experiment: Determination of selectivity: thrombin inhibition, chromogenic substrate GPR assay; details: fold selectivity for FXIIa over thrombin
T2 construct: FXa (5 nM) and thrombin (5 nM)
In short: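 Thrombin (5 nM) preincubated with compound 10 min at 37 °C in 50 mM Tris, 137 mM NaCl, pH 7.4, 5% DMSO, then GPR substrate ([…]) added. Absorbance at 405 nm read kinetically for 3 h; IC50 from initial rates, converted to Ki via Ki=IC50/(1+[S]/Km).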

Sequence of FXa (P00742 235-488 limits assumed): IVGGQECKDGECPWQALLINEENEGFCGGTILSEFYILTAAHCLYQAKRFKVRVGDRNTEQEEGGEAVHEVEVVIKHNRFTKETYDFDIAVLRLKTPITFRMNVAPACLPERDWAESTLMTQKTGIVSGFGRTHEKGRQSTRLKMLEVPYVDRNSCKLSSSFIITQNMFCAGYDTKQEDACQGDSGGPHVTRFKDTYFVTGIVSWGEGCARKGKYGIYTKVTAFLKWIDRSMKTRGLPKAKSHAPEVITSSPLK
Sequence of FXa (P00742 41-179 partner limits assumed): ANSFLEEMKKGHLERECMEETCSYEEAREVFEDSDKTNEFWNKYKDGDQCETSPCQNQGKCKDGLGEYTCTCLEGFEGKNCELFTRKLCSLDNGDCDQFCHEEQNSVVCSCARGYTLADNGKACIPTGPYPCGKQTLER

FXa (human)/FXIIa alpha (human) (FXa): ∘∘∘
Ki (FXIIa): < 200 nM
SMILES: COc1ccc(CC2C[C@@H](C(=O)NCc3ccc4c(c3)nnn4C)N(C(=O)[C@H](N)CCC(=O)N3CCCC3)C2)cc1Cl (stereo partly drawn) [Example M05298]
Thrombin (human)/FXIIa alpha (human) (thrombin): +++ (fold selectivity values greater than 100)
